Test results from patent US8377929B2, “Crystalline forms of the tri-mesylate salt of perphenazine-GABA and process of producing the same” (Ramot at Tel-Aviv University Ltd., priority 2010, dated 2013).

Assays:
Format in all cases: physicochemical
[1] = Moisture absorption/desorption (DVS); settings: for Weight gain from 5-55% RH / Weight gain from 55-95% RH: DVS adsorption phase; for Weight gain from 55-95% RH: samples did not reach equilibration; for Weight loss from 95-5% RH: DVS desorption phase; for Weight loss at 5% RH: DVS, upon equilibration to 5% RH
Experimental: Moisture absorption/desorption (DVS) data was collected on a VTI SGA-100 Vapor Sorption Analyzer. Absorption and desorption data were collected over a range of 5% to 95% relative humidity (RH) at 10% RH intervals under a nitrogen purge. Samples were not dried prior to analyses. Equilibrium criteria used for analyses were less than 0.0100% weight change in 5 minutes, with a maximum equilibrium time of 3 hours if the weight criterion was not met. Data were not corrected for the initial moisture content of the samples. NaCl and PVP were used as calibration standards.

Bulk and tapped density = experiment: Bulk and tapped density
Text: Samples were submitted to Particle Technology Labs (PTL), Downers Grove, Ill., for bulk and tapped density analyses.

[2] = Particle size (Malvern MS2000); design: unit not given here; settings: particle size distribution, 0.1% SPAN 85 in hexane, sonication 10 seconds, unit μm
Text: Particle size data was acquired using a Malvern Instruments MS2000 equipped with a Hydro2000 μP dispersion unit. Data was collected and analyzed with Mastersizer 2000 v. 5.1 software, using volume based measurements. NIST traceable glass beads were used as the reference standard. […] Model: general purpose; Sensitivity: normal.

[3] = BET surface area (nitrogen absorption); settings: 11-point BET, outgassed at 40° C. under vacuum
Experimental: Surface area data were collected using nitrogen absorption on a BET Micrometics Gemini V (11-point BET analysis) analyzer. The samples were outgassed at 40° C. under vacuum for at least 2 hours. SRM 1899 and SRM 1900 were used as the calibration standards.

[4] = Stability and hygroscopy of crystalline Form B compared to crystalline Form A; settings: as compared to crystalline Form A

With `CS(=O)(=O)O.CS(=O)(=O)O.CS(=O)(=O)O.NCCCC(=O)OCCN1CCN(CCCN2c3ccccc3Sc3ccc(Cl)cc32)CC1` [BL-1020 MSA salt crystalline Form B, perphenazine 4-aminobutyrate trimesylate] as the compound, how does the “Weight gain from 5-55% RH” value ([1]; listed as 01BIL02-01-22) read?
The value was 0.4%.

What about the “Weight gain from 5-55% RH” value ([1]; listed as 01BIL02-02-22) of the same compound?
Its value is 0.4%.

What about the “Weight gain from 5-55% RH” value ([1]; listed as 01BIL02-03-22) of the same compound?
Its value is 0.4%.

What about the “Weight gain from 5-55% RH” value ([1]; listed as 01BIL02-04-22) of the same compound?
The value was 0.4%.

And the “Weight gain from 5-55% RH” value ([1]; listed as 01BIL02-05-26)?
Its value is 0.4%.

What about the “Weight gain from 5-55% RH” value ([1]; listed as 06-01915-3) of the same compound?
Its value is 0.6%.

What about the “Weight gain from 55-95% RH” value ([1]; listed as 01BIL02-01-22) of the same compound?
The value was 71.6%.

And the “Weight gain from 55-95% RH” value ([1]; listed as 01BIL02-02-22)?
The value was 69.8%.

What about the “Weight gain from 55-95% RH” value ([1]; listed as 01BIL02-03-22) of the same compound?
Its value is 72.7%.

And the “Weight gain from 55-95% RH” value ([1]; listed as 01BIL02-04-22)?
The value was 70.5%.

What about the “Weight gain from 55-95% RH” value ([1]; listed as 01BIL02-05-26) of the same compound?
The value was 68.9%.

And the “Weight gain from 55-95% RH” value ([1]; listed as 06-01915-3)?
The value was 71.6%.

And the “Weight loss from 95-5% RH” value ([1]; listed as 01BIL02-01-22)?
The value was 67.0%.

What about the “Weight loss from 95-5% RH” value ([1]; listed as 01BIL02-02-22) of the same compound?
The value was 64.8%.

What about the “Weight loss from 95-5% RH” value ([1]; listed as 01BIL02-03-22) of the same compound?
Its value is 67.6%.

What about the “Weight loss from 95-5% RH” value ([1]; listed as 01BIL02-04-22) of the same compound?
The value was 66.0%.

What about the “Weight loss from 95-5% RH” value ([1]; listed as 01BIL02-05-26) of the same compound?
Its value is 64.8%.

And the “Weight loss from 95-5% RH” value ([1]; listed as 06-01915-3)?
Its value is 66.9%.

What about the “Weight loss at 5% RH” value ([1]; listed as 01BIL02-01-22) of the same compound?
The value was 0.1%.

And the “Weight loss at 5% RH” value ([1]; listed as 01BIL02-02-22)?
The value was 0.1%.

And the “Weight loss at 5% RH” value ([1]; listed as 01BIL02-03-22)?
Its value is 0.1%.

And the “Weight loss at 5% RH” value ([1]; listed as 01BIL02-04-22)?
The value was 0.1%.

What about the “Weight loss at 5% RH” value ([1]; listed as 01BIL02-05-26) of the same compound?
Its value is 0.3%.

And the “Weight loss at 5% RH” value ([1]; listed as 06-01915-3)?
Its value is 0.6%.

What about the Bulk density (Bulk and tapped density; listed as 01BIL02-01-22) of the same compound?
Its Bulk density is 0.16 g/mL.

And the Tapped density (Bulk and tapped density; listed as 01BIL02-01-22)?
The Tapped density was 0.25 g/mL.

And the Bulk density (Bulk and tapped density; listed as 01BIL02-02-22)?
The Bulk density was 0.16 g/mL.

What about the Tapped density (Bulk and tapped density; listed as 01BIL02-02-22) of the same compound?
The Tapped density was 0.24 g/mL.

What about the Bulk density (Bulk and tapped density; listed as 01BIL02-03-22) of the same compound?
The Bulk density was 0.18 g/mL.

What about the Tapped density (Bulk and tapped density; listed as 01BIL02-03-22) of the same compound?
Its Tapped density is 0.26 g/mL.

And the Bulk density (Bulk and tapped density; listed as 01BIL02-04-22)?
The Bulk density was 0.13 g/mL.

What about the Tapped density (Bulk and tapped density; listed as 01BIL02-04-22) of the same compound?
Its Tapped density is 0.22 g/mL.

What about the Bulk density (Bulk and tapped density; listed as 06-01915-3) of the same compound?
Its Bulk density is 0.18 g/mL.

And the Tapped density (Bulk and tapped density; listed as 06-01915-3)?
The Tapped density was 0.24 g/mL.

And the d10 ([2]; listed as 01BIL02-01-22)?
Its d10 is 2.1.

What about the d50 ([2]; listed as 01BIL02-01-22) of the same compound?
The d50 was 5.8.

And the d90 ([2]; listed as 01BIL02-01-22)?
Its d90 is 18.3.

And the d10 ([2]; listed as 01BIL02-02-22)?
Its d10 is 2.1.

What about the d50 ([2]; listed as 01BIL02-02-22) of the same compound?
Its d50 is 6.1.

What about the d90 ([2]; listed as 01BIL02-02-22) of the same compound?
Its d90 is 22.5.

What about the d10 ([2]; listed as 01BIL02-03-22) of the same compound?
The d10 was 2.1.

What about the d50 ([2]; listed as 01BIL02-03-22) of the same compound?
The d50 was 6.2.

What about the d90 ([2]; listed as 01BIL02-03-22) of the same compound?
Its d90 is 19.7.

And the d10 ([2]; listed as 01BIL02-04-22)?
Its d10 is 2.3.

And the d50 ([2]; listed as 01BIL02-04-22)?
The d50 was 6.8.

And the d90 ([2]; listed as 01BIL02-04-22)?
The d90 was 21.8.

And the d10 ([2]; listed as 06-01915-3)?
The d10 was 3.8.

What about the d50 ([2]; listed as 06-01915-3) of the same compound?
Its d50 is 9.3.

What about the d90 ([2]; listed as 06-01915-3) of the same compound?
Its d90 is 41.8.

And the BET surface area ([3]; listed as 01BIL02-01-22)?
The BET surface area was 4.77 m^2/g.

What about the BET surface area ([3]; listed as 01BIL02-02-22) of the same compound?
The BET surface area was 4.55 m^2/g.

And the BET surface area ([3]; listed as 01BIL02-03-22)?
Its BET surface area is 4.93 m^2/g.

And the BET surface area ([3]; listed as 01BIL02-04-22)?
The BET surface area was 4.57 m^2/g.

And the BET surface area ([3]; listed as 01BIL02-05-26)?
The BET surface area was 2.67 m^2/g.

And the BET surface area ([3]; listed as 06-01915-3)?
Its BET surface area is 4.84 m^2/g.

And the Hygroscopy [4]?
Its Hygroscopy is “reduced hygroscopy”.

What about the Stability [4] of the same compound?
The Stability was “higher stability”.
